Settings: Liquid

CC(C)CO [2-methyl-1-propanol]
Recirculating still
Settings | vapor or sublimation pressure [kPa]
336.9 K | 15
351.2 K | 30
357.7 K | 40
362.9 K | 50
367.4 K | 60
371.3 K | 70
374.7 K | 80
377.8 K | 90
380.7 K | 100
383.3 K | 110
385.8 K | 120
388 K | 130
390.2 K | 140
392.2 K | 150

CC(C)CCO [3-methylbutan-1-ol]
Recirculating Still
Settings | vapor or sublimation pressure [kPa]
357.5 K | 15
367.2 K | 23.5
374.4 K | 32
380.1 K | 40.5
384.8 K | 49
389.1 K | 57.5
392.8 K | 66
402 K | 91.5
407 K | 108.5
409.3 K | 117
411.4 K | 125.5
413.5 K | 134
415.4 K | 142.5
417.3 K | 151
419.2 K | 159.5
420.9 K | 168
422.4 K | 176.5
